Tests used:
Format in all cases: physicochemical
[1] = Lipophilicity, log P of the compound; conditions: octanol/water
[2] = Solubility of the compound in methanol
[3] = Solubility of the compound in ethanol

Row | Structure (SMILES) | logP ([1]; read-out: logP) | also measured
1 | c1ccc2c(c1)n[n+]1c3ccccc3[n-]n21 | 2 | 
2 | c1cncc(CNCc2cccnc2)c1 | 1.01 | 
3 | NC(=O)CNC(=O)Cc1ccccc1 | 0.06 | 
4 | O=C(CC1NCCNC1=O)NCc1ccccc1 (stereo unspecified) | -0.2 | 
5 | Nc1nonc1N/N=C/c1ccc(O)c(O)c1 | 3.18 | 
6 | N#Cc1ncc(-c2ccccc2)nc1C#N | 0.8 | 
7 | Nn1c(=O)[nH]c2c([nH]c3ccccc32)c1=O | 0.26 | 
8 | O=C(CNC(=O)c1cccnc1)N/N=C/c1ccccn1 | 0.32 | solubility [2]: Soluble
9 | C=CCn1c(S)nc2sc3c(c2c1=O)CCN(C)C3 | 2.29 | 
10 | Cc1cc(-c2ccc(F)cc2)nc2cc(C(=O)O)nn12 | 2.08 | 
11 | O=C(O)c1cnc2c(ccc3ccccc32)c1O | 1.87 | 
12 | Cc1cn[nH]c1NC=C1C(=O)c2ccccc2C1=O | 1.79 | 
13 | O=C(O)c1ccccc1-c1nc(O)c2ccccc2n1 | 2.25 | 
14 | Cn1c(=O)c(CC(=O)C(=O)O)nc2ccccc21 | -0.29 | 
15 | COc1ccc2[nH]c(SCC(N)=O)nc2c1 | 1.01 | 
16 | NC1=N[NH+]([O-])c2ccccc2[NH+]1[O-] (stereo unspecified) | 1.22 | 
17 | Cc1ccc(CN2CCN(Cc3ccccc3)CC2)cc1 | 3.57 | solubility [2]: Insoluble
18 | O=C(O)Cc1c(O)c2c(c(O)c1Cl)C(=O)c1ccccc1C2=O | 2.69 | 
19 | Oc1ccccc1/C=N/Nc1nnn[nH]1 | 3.23 | solubility [2]: Insoluble
20 | CC(=O)Nc1ccc(/N=C/c2ccco2)cc1 | 1.54 | solubility [2]: Soluble
21 | O=C1OC(c2ccccc2)=N/C1=C\Nc1cccc([N+](=O)[O-])c1 | 3.05 | solubility [2]: Insoluble
22 | CCc1cc(=O)oc2cc(OCC(N)=O)ccc12 | 1.46 | solubility [2]: Insoluble
23 | O=C(O)CCn1ncc2ccccc21 | 0.91 | solubility [3]: Soluble
24 | O=C(Cc1ccc(Cl)cc1)N/N=C/c1c[nH]c2ccccc12 | 4.74 | solubility [2]: Soluble
25 | Cc1ccccc1C(=O)O/N=C(\N)c1cccnc1 | 2.61 | 

Row | Structure (SMILES) | logP ([1]; read-out: logP) | also measured
26 | O=C(Cn1ncc2cc([N+](=O)[O-])ccc21)NCc1ccco1 | 0.92 | 
27 | Cc1cc(C(=O)O)nn1-c1ccccc1 | 1.47 | 
28 | Nc1nonc1-c1noc(-c2cccnc2O)n1 | 0.04 | solubility [2]: Insoluble
29 | O=C(O)/C=C\C(=O)Nc1ccc(Nc2ccccc2)cc1 | 2.6 | solubility [2]: Soluble
30 | O=C(CSc1nc2cccnc2[nH]1)NCCc1ccccc1 | 2.43 | 
31 | O=CNc1nonc1NNc1ccccc1 | 0.89 | solubility [2]: Soluble
32 | CCOc1ccc(Nc2nc(CC(=O)O)cs2)cc1 | 2.29 | 
33 | NCCCNc1ccc([N+](=O)[O-])c(N)c1 | 0.38 | 
34 | Nc1nonc1-n1cc(-c2ccccc2)nn1 | 1.15 | 
35 | Nc1cc2nc3ccccc3nc2cc1N | 1.66 | 
36 | O=C(NNC(=O)c1ccncc1)c1ccncc1 |  | solubility [2]: Soluble; logP [1]: 0.05
37 | COc1ccc(C(N)Cc2cnc[nH]2)cc1 (stereo unspecified) | 0.81 | 
38 | O=C(O)CSc1cccc2ccccc12 | 3.22 | 
39 | O=C(O)c1cc(-c2cccnc2)nc2ccccc12 | 2.51 | solubility [2]: Insoluble
40 | O=C1C=C(Nc2ccccc2O)c2ccccc2C1=O | 2.8 | solubility [3]: Soluble
41 | COc1ccc(C(=O)COC(=O)/C=C/c2ccccc2)cc1 | 3.7 | solubility [2]: Insoluble
42 | NCCNc1nc(-c2ccccc2)nnc1-c1ccc(Cl)cc1 | 3.6 | 
43 | Nc1nonc1-c1nc2ccccc2n1CC(=O)O | 1.08 | 
44 | O=[N+]([O-])c1cccc(-c2noc(Cc3ccccc3)n2)c1 | 3.33 | solubility [3]: Insoluble
45 | CC(N)c1ccc2ccccc2c1 (stereo unspecified) | 2.88 | 
46 | O=C(O)CCC(=O)Nc1ccc(Oc2ccccc2)cc1 | 2.36 | 
47 | Cc1cccc(NC(=O)c2ccc(C(=O)Nc3cccc(C)n3)cc2)n1 | 2.68 | solubility [2]: Insoluble
48 | Nc1nnc(CCN2C(=O)c3ccccc3C2=O)s1 | 1.39 | 
49 | Cc1c(OC(C)C(=O)O)ccc2c3c(c(=O)oc12)CCC3 (stereo unspecified) | 2.6 | solubility [2]: Insoluble
50 | [O-][NH+]1C=CC=C/C1=C1\C=CC=C[NH+]1[O-] (stereo unspecified) | 1.95 | 

Row | Structure (SMILES) | logP ([1]; read-out: logP) | also measured
51 | O=C(N/N=C/c1ccc(O)cc1O)c1cccnc1 | 1.88 | solubility [2]: Insoluble
52 | Cc1ccc(NC(=O)c2cnccn2)cc1Cl | 1.48 | solubility [2]: Insoluble
53 | Cc1n[nH]c(Nc2ccccc2F)c1[N+](=O)[O-] | 2.63 | solubility [3]: Insoluble
54 | Nc1nnnn1/N=C/c1cc2c(cc1[N+](=O)[O-])OCO2 | 0.52 | solubility [2]: Insoluble
55 | Cc1ccc(Nc2n[nH]c(N=CNO)n2)cc1C | 2.07 | 
56 | O=C(O)CNS(=O)(=O)c1ccc(F)cc1 | 0.66 | 
57 | O=C(O)c1ccc2c(c1)C(=O)N(c1ccc(Cl)cc1)C2=O | 3.03 | solubility [2]: Soluble
58 | Cc1cccc2c(CCN)c[nH]c12 | 1.9 | 
59 | O=C(Oc1ccc(S(=O)(=O)c2ccc(OC(=O)c3ccco3)cc2)cc1)c1ccco1 | 3.38 | 
60 | O=C(c1ccccc1O)c1[nH]ncc1[N+](=O)[O-] | 1.6 | 
61 | NC(=O)C1=NC(c2cccnc2)=NC1=O | -1.12 | 
62 | Cc1ccc(O)c(/C=N/c2cccc(C(=O)O)c2)c1 | 3.28 | 
63 | O=C(Oc1ccc(OC(=O)c2ccco2)cc1)c1ccco1 | 2.53 | solubility [2]: Insoluble
64 | Cc1cc(O)nc(-c2ccc(C(N)=O)cc2)n1 | 0.86 | solubility [3]: Insoluble
65 | C1CN2CCC1/C(=N\Nc1nnn[nH]1)C2 | 1.56 | 
66 | CNCc1ccccc1Sc1cccc(OC)c1 | 3.92 | 
67 | Cc1nccn1S(=O)(=O)c1ccc(F)cc1 | 0.89 | 
68 | CN(C)CCN(C)Cc1cccc2ccccc12 | 3.05 | solubility [2]: Insoluble
69 | Cn1c(=N)n(CC(=O)O)c2ccccc21 | 1.6 | solubility [3]: Soluble
70 | Cc1ccc(S(=O)(=O)NC(=O)NCc2ccco2)cc1 | 1.2 | solubility [3]: Insoluble
71 | O=C(CNC(=O)c1ccc2[nH]c3ccccc3c2c1)NCCO | 1.4 | 
72 | N#Cc1ccc[n+](Cc2cc(=O)[nH]c(=O)[nH]2)c1 | 0.38 | 
73 | O=C(Cc1ccc(F)cc1)NNC(=O)Cn1cnnn1 | -0.66 | 
74 | N=C1S/C(=C\c2ccccc2)C(=O)N1c1nonc1N | 2.4 | 
75 | Nc1nnc(-c2cc3ccc(O)cc3oc2=O)s1 | 2.05 | 

Row | Structure (SMILES) | logP ([1]; read-out: logP) | also measured
76 | NCc1ccccn1 | -0.11 | 
77 | CN1CCN(CCCn2cnc3c2c(=O)n(C)c(=O)n3C)CC1 | -0.76 | solubility [2]: Soluble
78 | O=C(c1ccco1)C12CN3CN(CN(C3)C1)C2 | -0.96 | solubility [2]: Soluble
79 | O=C(O)c1ccc(Cc2ccccc2)o1 | 2.22 | 
80 | O=c1nc2oc3cc(O)ccc3cc-2c(=O)[nH]1 | 1.25 | 
81 | c1ccc2[nH]c(Cc3ccncc3)nc2c1 | 2.14 | 
82 | NC(N)N/N=C/c1cc(=O)[nH]c(=O)[nH]1 | -1.79 | 
83 | O=C(O)c1ccc2c(c1)-c1nc3ccccc3n1C2=O | 2.52 | solubility [3]: Insoluble
84 | N#CCc1ccc(NC2=NS(=O)(=O)c3ccccc32)cc1 | 2.81 | solubility [2]: Insoluble
85 | O=C(O)C(O)c1cccc([N+](=O)[O-])c1 (stereo unspecified) | 0.98 | 
86 | O=C1c2ccccc2-c2nc3n[nH]nc3nc21 | 2 | 
87 | COc1ccc(C(=O)/C=C/Nc2ccccc2C#N)cc1 | 2.82 | solubility [3]: Insoluble
88 | NCC(O)(c1ccc(Cl)cc1)c1ccc(Cl)cc1 | 3.63 | solubility [2]: Soluble
89 | Cc1nonc1NC(=O)CN1CCN(C)CC1 | -1.04 | 
90 | N#CCCNCc1cccnc1 | 0.03 | 
91 | O=C(Cc1ccc([N+](=O)[O-])cc1)N/N=C/c1ccc(O)cc1 | 3.41 | solubility [2]: Insoluble
92 | O=C(NCCOc1ccccc1)C(=O)Nc1ccccc1 | 1.77 | solubility [2]: Insoluble
93 | COc1ccc(/C=N/NC(=O)Cc2ccc([N+](=O)[O-])cc2)cc1 | 3.67 | 
94 | Cc1nc(NCCCC(=O)O)c2ccccc2n1 | 1.38 | 
95 | NC(=O)c1ccc[n+](-c2ccccc2)c1 | 2.15 | 
96 | C=CCNC(=O)C(=O)Nc1ccc(C(C)C)cc1 | 2 | solubility [2]: Insoluble
97 | C/N=C(/NC)SC1CC(=O)N(c2cccc(C(=O)O)c2)C1=O (stereo unspecified) | 1.25 | 
98 | COc1ccc(CNC(=N)NC(=N)N)cc1 | 1.46 | 
99 | N=C(N/N=C\c1cccnc1)N/N=C\c1cccnc1 | 7.05 | solubility [2]: Soluble
100 | NC(=O)NNC1CC(=O)N(c2ccc(F)cc2)C1=O (stereo unspecified) | -0.43 | 

Row | Structure (SMILES) | logP ([1]; read-out: logP) | also measured
101 | O=C(O)c1ccc2c(c1)C(=O)N(CCO)C2=O | 0.09 | solubility [2]: Soluble
102 | O=C(O)Cc1c(C(=O)O)[nH]c2ccccc12 | 1.67 | 
103 | COc1ccc(C(=O)n2nnc3ccccc32)cc1 | 2.77 | 
104 | NCCNS(=O)(=O)c1cccc(C(=O)O)c1 | -0.2 | 
105 | CCc1ccc2[nH]c3nc(N/N=C/c4ccc(Cl)cc4)nnc3c2c1 | 7.15 | solubility [2]: Insoluble
106 | O=C(NCc1ccco1)c1cc(C(=O)NCc2ccco2)cc([N+](=O)[O-])c1 | 1.56 | solubility [2]: Soluble
107 | O=C(O)CSc1nc(O)c2ccccc2n1 | 1.34 | 
108 | NC(=O)c1nnn2c1nc(N)c1cc(Cl)ccc12 | -0.14 | 
109 | NCc1ccc2c3c(cccc13)C(=O)N2 | 1.36 | 
110 | C=CCNc1nc(-c2cccs2)c(CC(=O)O)s1 | 2.29 | 
111 | NS(=O)(=O)c1ccc2c(N=O)c(O)ccc2c1 | 1.3 | 
112 | O=C1Nc2ccccc2Nc2ccccc21 | 2.27 | 
113 | CC(C)c1ccc(CN2CCN(CCO)CC2)cc1 | 1.93 | solubility [2]: Insoluble
114 | O=C1CN=C(Nc2nc3ccccc3o2)N1 | 0.62 | 
115 | COc1ccc(NC(=O)CSc2nnc(C)n2-c2ccc(C)cc2)cc1 | 3.95 | 
116 | CCN1CCN(CCN)CC1 | -0.88 | solubility [2]: Soluble
117 | Nc1ccccc1N/C=C1/C(=O)CNC1=O | -0.57 | 
118 | Cc1cc(C)nc(NC(=N)Nc2ccc(C(=O)O)cc2)n1 | 1.62 | solubility [2]: Soluble
119 | O=C(O)/C=C\C(=O)Nc1ccc(OCC(=O)O)cc1 | 0.6 | solubility [2]: Soluble
120 | COC(=O)c1ccc(/C=N/n2cnnc2)cc1 | 1.55 | 
121 | NCC(=O)N(O)Cc1ccccc1 | 0.19 | 

Reference: ChEMBL document CHEMBL3880431, “Heme oxygenase inhibitors, screening methods for heme oxygenase inhibitors and methods of use of heme oxygenase inhibitors for antimicrobial therapy” (2013)
